The text below walks through data of ChEMBL document CHEMBL4627391, “Bioactive Compounds from the Aerial Parts of Evolvulus linarioides” (J Nat Prod, 2020).

Series [1] deals with J774. The series is described as follows: Antiinflammatory activity in mouse J774 cells assessed as inhibition of LPS/IFNgamma-induced IL-1beta level incubated for 24 hrs by ELISA relative to control. The series is classed as functional.
Series [2] deals with J774. As to the kind of experiment: Antiinflammatory activity in mouse J774 cells assessed as LPS/IFNgamma-induced IL-1beta level at 100 uM incubated for 24 hrs by ELISA (reference value: 9.6 to 26.1 pg/mg). Type of series: functional.
Series [3] relates to J774. The series is described as follows: Antiinflammatory activity in mouse J774 cells assessed as LPS/IFNgamma-induced IL-1beta level at 6.3 uM incubated for 24 hrs by ELISA (reference value: 9.6 to 26.1 pg/mg). The series is classed as functional.
Series [4] deals with J774. The series is described as follows: Antiinflammatory activity in mouse J774 cells assessed as LPS/IFNgamma-induced IL-1beta level at 25 uM incubated for 24 hrs by ELISA (reference value: 9.6 to 26.1 pg/mg). The series is classed as functional.
In series [5] the test system is J774. The series is described as follows: Antiinflammatory activity in mouse J774 cells assessed as inhibition of LPS/IFNgamma-induced NO production incubated for 24 hrs by Griess method. The series is classed as functional, cell-based. Particulars: J774, 24 h.
Series [6] in a line: Cytotoxicity against mouse J774 cells assessed as reduction in cell viability after 72 hrs by Alamar Blue assay. The series is classed as cell-based.
Series [7] has as its system J774. As to the kind of experiment: Antiinflammatory activity in mouse J774 cells assessed as inhibition of LPS/IFNgamma-induced IL-1beta level at 10 uM incubated for 24 hrs by ELISA relative to control. The series is classed as functional. Particulars: J774, 24 h.

On to `C/C=C(/C)C(=O)OC[C@@H](OC(C)=O)[C@@H](OC(=O)/C(C)=C\C)C(O)(COC(=O)/C(C)=C\C)COC(=O)/C(C)=C\C`, for which, in series [1], the Imax was 80.6%. Also, the Activity in series [2] turned out to be 3.8 pg/mg; in series [3], 15.6 pg/mg; in series [4], 14.6 pg/mg. The IC50 in series [5] worked out at 34.2 µM. Besides, the CC50 at 72 h in series [6] was 206 µM.

Regarding `CC[C@@H](CO)C(=O)OC[C@@H]1O[C@H](OCc2cc(=O)c3c(O)cc(O)cc3o2)[C@@H](O)[C@H](O)[C@H]1O`, the Imax in series [1] is 96.2%. The Activity was 0.3 pg/mg in series [2], 8.4 pg/mg in series [3] and 8.6 pg/mg in series [4]. Moreover, in series [5], the IC50 was determined as 25.3 µM. In addition, the CC50 at 72 h in series [6] came to 209 µM.

`C/C=C(/C)C(=O)OCC(O)(COC(=O)/C(C)=C\C)[C@H](OC(=O)/C(C)=C\C)[C@@H](COC(C)=O)OC(C)=O` (some centres not stated): the Imax in series [1] was 88.5%. Also, the values for the Activity in series [2], in series [3] and in series [4] were 1.1 pg/mg, 7.3 pg/mg and 9.3 pg/mg, respectively. The IC50 in series [5] was 28.2 µM. Further, the CC50 at 72 h in series [6] was found to be 198 µM.

Regarding `C=C1CC[C@@H]2[C@H](CC2(C)C)[C@@](O)(CO)CC[C@@H]1O`, in series [1], the Imax is 93%. In addition, the Activity in series [2] came out at 0.7 pg/mg; in series [3], 14.3 pg/mg; in series [4] it was 7 pg/mg. For the same compound, in series [5], the IC50 came to 17.8 µM. Moreover, the CC50 at 72 h in series [6] turned out to be 193 µM.

For `CC(=O)OC[C@@]1(O)CC[C@H]2O[C@@]2(C)CC[C@@H]2[C@@H]1CC2(C)C`, the Imax in series [1] turned out to be 75%. Besides, the Activity in series [2] turned out to be 2.4 pg/mg; in series [3], 10.2 pg/mg; in series [4] it was 6.5 pg/mg. Also, in series [5], the IC50 amounted to 52.2 µM. Further, the CC50 at 72 h in series [6] was 273 µM.

On to `C/C1=C/C[C@@H]2[C@H](CC2(C)C)[C@@](O)(CO)CC[C@@H]1O`, for which the Imax in series [1] is recorded as 92.5%. Besides, the Activity worked out at 1.5 pg/mg in series [2], 28.6 pg/mg in series [3] and 14 pg/mg in series [4]. In addition, the concentration for half-maximal inhibition (IC50) in series [5] is 30.3 µM. Moreover, the CC50 at 72 h in series [6] came to 194 µM.

For `O=c1cc(CO)oc2cc(O)cc(O)c12` [CNIDIMOL C], the Imax in series [1] worked out at 72.7%. Further, the Activity in series [2] amounted to 3.9 pg/mg; in series [3], 15.7 pg/mg; in series [4], 10.5 pg/mg. Further, the concentration for half-maximal inhibition (IC50) in series [5] was determined as 22.4 µM. The CC50 at 72 h in series [6] is 256 µM.

For `C[C@@H]1C[C@H]2[C@@H]3CCC4=CC(=O)C=C[C@]4(C)[C@@]3(F)[C@@H](O)C[C@]2(C)[C@@]1(O)C(=O)CO` [DEXAMETHASONE], the inhibition at 10 µM in series [7] was 87.1%. In series [5], the IC50 was found to be 5.2 µM.

On to `CN(C)c1ccc(C(=C2C=CC(=[N+](C)C)C=C2)c2ccc(N(C)C)cc2)cc1` [GENTIAN VIOLET], for which the CC50 at 72 h in series [6] was found to be 0.8 µM.

With `O=c1cc(CO[C@@H]2O[C@H](CO)[C@@H](O)[C@H](O)[C@H]2O)oc2cc(O)cc(O)c12` [MONNIERISIDE A], the Imax in series [1] was 85.5%. Moreover, the values for the Activity in series [2], in series [3] and in series [4] were 2 pg/mg, 14.6 pg/mg and 9.1 pg/mg, respectively. The IC50 in series [5] came to 66.3 µM. In addition, in series [6], the CC50 at 72 h stood at 201 µM.

Take `Cc1cc(=O)c2c(O)cc(O[C@@H]3O[C@H](CO)[C@@H](O)[C@H](O)[C@H]3O)cc2o1` [UNDULATOSIDE A]: the Imax in series [1] is 89.6%. For the same compound, the Activity in series [2] came to 1.5 pg/mg; in series [3], 14.5 pg/mg; in series [4] it was 9.5 pg/mg. Also, the IC50 in series [5] worked out at 51.2 µM. Also, the half-maximal cytotoxic concentration (CC50) at 72 h in series [6] stood at 191 µM.
